Experiments:
Swiss albino mice = assay: Maximum tolerated dose (MTD) study in mice, single intravenous dose; type: in vivo; conditions: 72 hours
Protocol: (§1) In this Example, groups of Swiss albino mice (an equal number of male and female animals) were subjected to a single dose of tetrazine 2.1 (reference), 2.4, 2.5, 2.7, or 2.10. Different groups were used for different doses. […] Control groups were also used, wherein mice were only administered vehicle (phosphate-buffered saline (PBS) pH 7.4) without tetrazine ("vehicle control").
(§2) Mice were treated in line with ethical guidelines. […] Environmental controls for the animal room were set to maintain a temperature of 22 to 25°C, humidity of 30-70% RH, and a 12-h light/12-h dark cycle.
(§3) The dose formulations were prepared as follows. Tetrazine 2.1 (reference), 2.4, 2.5, 2.7, or 2.10 was dissolved in PBS pH 7.4 to prepare separate stock solutions of each tetrazine. […] Further dilutions of the tetrazine stock solutions were done with PBS pH 7.4 to achieve a desired concentration.
(§4) Mice were dosed on day 1 by intravenously administering the dose formulation (expressed in µmol of tetrazine per kg body weight of the mouse). Thereafter, the mice were observed up to 72 hours post-dose for any signs of mortality. The number of dead mice after 72 hours ("mortality") was then divided by the original number of mice.

[1] = as above; type: in vivo; conditions: both sexes, Swiss albino, mouse, in vivo, iv, mice, single intravenous dose, observed up to 72 hours post-dose
Protocol: as §1, §2, §3, §4

[2] = test system: calcium channel L-type, dihydropyridine; assay: Transporter ligand binding inhibition, calcium channel L-type; parameters: species or system rats; conditions: for % Calcium channel L-type dihydropyridine inhibition: final concentration of tetrazine 10 µM, rat, ligand binding
Protocol: (§5) In this Example, the inhibition of several physiologically relevant target proteins (viz. enzymes and a transporter) by tetrazines were tested in vitro. The enzymes tested were cyclooxygenase (COX-1), acetyl cholinesterase (ACES), and monoamine oxidase (MAO-B), and the tested transporter was calcium channel L-type, dihydropyridine. COX-1, ACES, and MAO-B from humans was used, while calcium channel L-type, dihydropyridine from rats was used. Standard literature protocols were used, and relevant controls were included to ensure the validity of the results. The target proteins were mixed with tetrazine 2.1 (reference), 2.4, 2.5, 2.7, or 2.10 (final concentration of tetrazine 10 µM) in appropriate buffers. The final concentrations for the respective target proteins depended on the standard protocol used, but for each individual target protein this concentration was the same for the different tetrazines tested. After an appropriate incubation time at an appropriate temperature, the enzymatic activity of the enzyme or the ligand binding in case of the transporter was tested in accordance with standard procedures from literature. From this remaining enzymatic activity or ligand binding, the percentage of inhibition was determined.

cyclooxygenase (COX-1) = cyclooxygenase (COX-1) (Homo sapiens, UniProt P23219); assay: Enzyme inhibition study, COX-1; type: biochemical, humans; conditions: for % COX-1 inhibition: final concentration of tetrazine 10 µM, human COX-1
Protocol: as §5

[3] = biological target: T1, monoamine oxidase (MAO-B) (Homo sapiens, UniProt P27338); assay: Enzyme inhibition study, MAO-B; type: biochemical, humans; conditions: for % MAO-B inhibition: final concentration of tetrazine 10 µM, human MAO-B
T1 sequence (P27338 1-520): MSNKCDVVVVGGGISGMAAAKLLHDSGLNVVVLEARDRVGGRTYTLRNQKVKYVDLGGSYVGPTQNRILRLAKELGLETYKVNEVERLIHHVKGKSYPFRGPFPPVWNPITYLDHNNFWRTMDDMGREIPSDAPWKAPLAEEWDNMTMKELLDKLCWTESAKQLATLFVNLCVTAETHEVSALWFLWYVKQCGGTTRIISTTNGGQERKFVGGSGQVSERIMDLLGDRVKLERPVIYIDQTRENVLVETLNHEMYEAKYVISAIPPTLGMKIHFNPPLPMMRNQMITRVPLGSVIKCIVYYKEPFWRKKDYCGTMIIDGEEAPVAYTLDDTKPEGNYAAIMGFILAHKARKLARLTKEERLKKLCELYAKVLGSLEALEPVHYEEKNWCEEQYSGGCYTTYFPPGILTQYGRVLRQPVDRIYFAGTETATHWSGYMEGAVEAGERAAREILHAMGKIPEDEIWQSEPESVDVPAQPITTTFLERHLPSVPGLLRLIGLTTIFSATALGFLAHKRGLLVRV
Protocol: as §5

[4] = biological target: acetyl cholinesterase (ACES) (Homo sapiens, UniProt P22303); assay: Enzyme inhibition study, ACES; type: biochemical, humans; conditions: for % ACES inhibition: final concentration of tetrazine 10 µM, human ACES
Protocol: as §5

Chain of acetyl cholinesterase (ACES) (P22303 32-614): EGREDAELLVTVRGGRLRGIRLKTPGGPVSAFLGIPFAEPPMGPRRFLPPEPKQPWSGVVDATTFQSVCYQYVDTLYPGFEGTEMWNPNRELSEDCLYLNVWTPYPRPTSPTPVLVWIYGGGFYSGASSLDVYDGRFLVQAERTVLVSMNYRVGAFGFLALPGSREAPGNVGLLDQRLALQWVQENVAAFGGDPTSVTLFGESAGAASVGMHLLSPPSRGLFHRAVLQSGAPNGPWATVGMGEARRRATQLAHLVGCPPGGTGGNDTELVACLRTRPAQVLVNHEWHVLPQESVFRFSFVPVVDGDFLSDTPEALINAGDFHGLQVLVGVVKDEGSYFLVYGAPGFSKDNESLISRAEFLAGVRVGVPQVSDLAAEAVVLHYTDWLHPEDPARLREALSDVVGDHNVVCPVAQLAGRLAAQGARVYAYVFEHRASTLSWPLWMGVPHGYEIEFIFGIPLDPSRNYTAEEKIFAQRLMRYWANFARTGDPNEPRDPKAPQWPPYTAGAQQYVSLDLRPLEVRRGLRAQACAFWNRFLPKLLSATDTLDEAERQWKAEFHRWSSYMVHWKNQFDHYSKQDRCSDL
Chain of cyclooxygenase (COX-1) (P23219 24-599): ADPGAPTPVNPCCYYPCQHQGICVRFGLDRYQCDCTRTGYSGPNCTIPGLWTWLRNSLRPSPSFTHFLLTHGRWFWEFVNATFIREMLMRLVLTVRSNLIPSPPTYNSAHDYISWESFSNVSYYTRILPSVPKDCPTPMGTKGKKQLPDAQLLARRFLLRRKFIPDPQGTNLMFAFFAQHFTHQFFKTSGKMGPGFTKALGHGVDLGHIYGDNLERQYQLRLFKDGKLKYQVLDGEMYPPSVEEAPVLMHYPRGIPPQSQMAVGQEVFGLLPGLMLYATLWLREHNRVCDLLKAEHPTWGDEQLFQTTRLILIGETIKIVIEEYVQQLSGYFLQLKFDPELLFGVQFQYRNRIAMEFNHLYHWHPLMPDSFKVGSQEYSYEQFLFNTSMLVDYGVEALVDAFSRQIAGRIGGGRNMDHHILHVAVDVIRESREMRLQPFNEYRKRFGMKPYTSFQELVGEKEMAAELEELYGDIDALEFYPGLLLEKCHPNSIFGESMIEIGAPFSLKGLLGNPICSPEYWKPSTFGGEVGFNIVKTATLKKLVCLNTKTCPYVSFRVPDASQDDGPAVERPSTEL

## O=C(O)CN(CCN(CC(=O)O)CC(=O)Nc1ccc(-c2nnc(-c3ccccn3)nn2)nc1)CC(=O)O [2.4, 2,2'-((2-((Carboxymethyl)(2-oxo-2-((6-(6-(pyridin-2-yl)-1,2,4,5-tetrazin-3-yl)pyridin-3-yl)amino)ethyl)amino)ethyl)azanediyl)diacetic acid]
Swiss albino mice; 19 µmol/kg i.v. single dose
  No. of mortality vs. total no. of mice: 0 out of 6
Swiss albino mice; 57 µmol/kg i.v. single dose
  No. of mortality vs. total no. of mice: 0 out of 6
Swiss albino mice; 95 µmol/kg i.v. single dose
  No. of mortality vs. total no. of mice: 4 out of 4
[1]
  MTD at 72 h: ≥ 57 µmol/kg
[2]
  % Calcium channel L-type dihydropyridine inhibition: 10%
Cyclooxygenase (COX-1)
  % COX-1 inhibition: 53%
[3]
  % MAO-B inhibition: 20%
[4]
  % ACES inhibition: 11%

## O=C([O-])CN(CCN(CC(=O)[O-])CC(=O)Nc1ccc(-c2nnc(-c3ccccn3)nn2)nc1)CC(=O)[O-].[Ca+2].[Na+] [2.5, Calcium sodium 2-({2-[bis(carboxylatomethyl)amino]ethyl)[({6-[6-(pyridin-2-yl)-1,2,4,5-tetrazin-3-yl]pyridin-3-yl}carbamoyl)methyl]amino)acetate]
Swiss albino mice; 85 µmol/kg i.v. single dose
  No. of mortality vs. total no. of mice: 0 out of 6
Swiss albino mice; 171 µmol/kg i.v. single dose
  No. of mortality vs. total no. of mice: 0 out of 6
Swiss albino mice; 512 µmol/kg i.v. single dose
  No. of mortality vs. total no. of mice: 0 out of 6
[2]
  % Calcium channel L-type dihydropyridine inhibition: 1%
Cyclooxygenase (COX-1)
  % COX-1 inhibition: 18%
[3]
  % MAO-B inhibition: 9%
[4]
  % ACES inhibition: -1%

## O=C(O)CCOCCOCCOCCC(=O)Nc1ccc(-c2nnc(-c3ccccn3)nn2)nc1 [2.7, 3-(2-(2-(3-Oxo-3-((6-(6-(pyridin-2-yl)-1,2,4,5-tetrazin-3-yl)pyridin-3-yl)amino)propoxy)ethoxy)ethoxy)propanoic acid]
Swiss albino mice; 103 µmol/kg i.v. single dose
  No. of mortality vs. total no. of mice: 0 out of 6
Swiss albino mice; 207 µmol/kg i.v. single dose
  No. of mortality vs. total no. of mice: 0 out of 6
Swiss albino mice; 621 µmol/kg i.v. single dose
  No. of mortality vs. total no. of mice: 0 out of 6
[2]
  % Calcium channel L-type dihydropyridine inhibition: -17%
Cyclooxygenase (COX-1)
  % COX-1 inhibition: 37%
[3]
  % MAO-B inhibition: 38%
[4]
  % ACES inhibition: 22%

## O=C(O)CN(CC(=O)O)CC(=O)Nc1ccc(-c2nnc(-c3ccccn3)nn2)nc1 [2.10, 2,2'-((2-Oxo-2-((6-(6-(pyridin-2-yl)-1,2,4,5-tetrazin-3-yl)pyridin-3-yl)amino)ethyl)azanediyl)diacetic acid]
Swiss albino mice; 118 µmol/kg i.v. single dose
  No. of mortality vs. total no. of mice: 0 out of 6
Swiss albino mice; 177 µmol/kg i.v. single dose
  No. of mortality vs. total no. of mice: 0 out of 6
Swiss albino mice; 236 µmol/kg i.v. single dose
  No. of mortality vs. total no. of mice: 0 out of 6
[2]
  % Calcium channel L-type dihydropyridine inhibition: -3%
Cyclooxygenase (COX-1)
  % COX-1 inhibition: 14%
[3]
  % MAO-B inhibition: 22%
[4]
  % ACES inhibition: 5%

## O=C(O)CN1CCN(CC(=O)O)CCN(CC(=O)NCCOCCOCCOCCOCCOCCOCCOCCOCCOCCOCCOCCNC(=O)CCCC(=O)Nc2ccc(-c3nnc(-c4ccccn4)nn3)nc2)CCN(CC(=O)O)CC1 [compound 2.1, 2,2',2''-(10-(2,40,44-Trioxo-44-((6-(6-(pyridine-2-yl)-1,2,4,5-tetrazin-3-yl)pyridine-3-yl)amino)-6,9,12,15,18,21,24,27,30,33,36-undecaoxa-3,39-diazatetratetracontyl)-1,4,7,10-tetraazacyclododecane-1,4,7-triyl)triacetic acid, reference compound]
Swiss albino mice; 8 µmol/kg i.v. single dose
  No. of mortality vs. total no. of mice: 0 out of 6
Swiss albino mice; 39 µmol/kg i.v. single dose
  No. of mortality vs. total no. of mice: 0 out of 6
Swiss albino mice; 78 µmol/kg i.v. single dose
  No. of mortality vs. total no. of mice: 4 out of 6
[1]
  MTD at 72 h: ~39 µmol/kg
[2]
  % Calcium channel L-type dihydropyridine inhibition: 44%
[2]; statement in description
  inhibition of calcium channel L-type, dihydropyridine, in words: strongly inhibits
Cyclooxygenase (COX-1)
  % COX-1 inhibition: 59%
Cyclooxygenase (COX-1); statement in description
  inhibition of cyclooxygenase (COX-1), in words: strongly inhibits
[3]
  % MAO-B inhibition: 36%
[3]; statement in description
  inhibition of monoamine oxidase (MAO-B), in words: strongly inhibits
[4]
  % ACES inhibition: 44%
[4]; statement in description
  inhibition of acetyl cholinesterase (ACES), in words: strongly inhibits
